# Experimental data reported in patent US5547941A, “Cyclic dinucleoside diphosphorothioates, related compounds and pharmaceutical compositions” (priority 1991, dated 1996).
# Where a name gives a salt, the structure may show the parent alone.
# Columns and labels:
# HIV [1] = test: Anti-HIV activity on the RNA level: viral RNA synthesized by HIV-infected human lymphocytes (nucleic acid hybridization); type: cell-based, HIV (in peripheral human lymphocytes); settings: for HIV RNA: 10 μM; for inhibition at 10 µM: Human immunodeficiency virus 1, Lymphocyte
# Experimental: (§1) The compounds of the present invention were tested for antiviral activity on peripheral human lymphocytes isolated by density gradient centrifugation and stimulated with a mitogen.
# (§2) Infection was performed with a standardized preparation of HIV and cells, cultured in the presence of the drug for 4 days.
# The total amount of viral RNA synthesized by the infected lymphocytes was determined on day 2, 3 and 4 by a nucleic acid hybridization technique. By including a standard preparation of HIV-RNA, the amount of synthesized RNA was quantified.
# (§3) The antiviral effect induced by the tested compounds was calculated from the inhibition of the evaluated parameters (i.e.: P24 or RNA) as compared with infected controls.
# HIV [2] = test: Anti-HIV activity on the protein level: viral core protein p24 in supernatant of HIV-infected mitogen-stimulated human lymphocytes (ELISA); type: cell-based, HIV (in peripheral human lymphocytes); settings: for HIV p24 in supernatant: 10 μM; for inhibition at 10 µM: Human immunodeficiency virus 1, Lymphocyte
# Experimental: as §1, §2
# Individual cultures were established to measure viral replication 2, 3 and 4 days after infection. The amount of viral core protein P 24, synthesized and released by the infected cells, was determined in the supernatant of treated and untreated cells on days 2, 3 and 4 by an Elisa.
# as §3
# [3] = system: peripheral human lymphocytes; test: Cytotoxicity (10 μM stated to be non cytotoxic); type: cell-based
# [4] = system: snake venom phosphodiesterase; test: Enzymatic hydrolysis of the deprotected dinucleotide thiophosphates by snake venom phosphodiesterase (HPLC substrate disappearance); type: biochemical, Crotalus durissus; settings: for Reduction in the area of the HPLC peak relatively to the control / Substrate change on enzymatic hydrolysis (in words): 37° C., pH 8
# Experimental: The two samples XIIa and XIIb can independently undergo an enzymatic degradation by action of an exonuclease like snake venom phosphodiesterase following the disappearance of starting sample by HPLC along the time. […] Accordingly the configuration RP has to be assigned to XIIa and configuration SP to XIIb.
# The relative susceptivity of the two substrates XIIa and XIIb to hydrolysis by snake venom phosphodiesterase was determined by incubating a solution (3 mM) of each substrate in Tris buffer (25 mM) containing MgCl2 (5 mM) at pH 8 with the enzyme (1 mg in 0.5 ml) (from Crotalus durissus) purchased from Boehringer and following the substrate disappearance by HPLC. In particular for each substrate a solution was prepared consisting of 700 μl of buffer, 200 μl of substrate solution plus 50 μl of enzyme solution. For each substrate a control was prepared with the same components and volumes except for the enzyme that was replaced by an equal volume of buffer. The four solutions (the two substrates and the two controls) were incubated at 37° C. taking aliquots from each solution at 0 time, 1 hour, 17 hours. Such aliquots were analyzed by HPLC (Whatman Partisphere C18, eluting with a linear gradient from 10% to 30% of methanol 0.1 M ammonium acetate) at 220 nm.
# [5] = 72 h, Day 3, read-out: Inhibition of HIV replication on the RNA level
# [6] = 96 h, Day 4, read-out: Inhibition of HIV replication on the RNA level
# [7] = 72 h, Day 3, read-out: Inhibition of HIV replication on the protein level
# [8] = 96 h, Day 4, read-out: Inhibition of HIV replication on the protein level
Compound,HIV RNA (HIV [1]; Day 2),"HIV RNA (HIV [1]; Day 3, control 226 pg RNA/ml)","HIV RNA (HIV [1]; Day 4, control 612 pg RNA/ml)",inhibition at 10 µM (HIV [1]; [5]),inhibition at 10 µM (HIV [1]; [6]),HIV p24 in supernatant (HIV [2]; Day 2),"HIV p24 in supernatant (HIV [2]; Day 3, control 2.2 ng p24/ml)","HIV p24 in supernatant (HIV [2]; Day 4, control 21.5 ng p24/ml)",inhibition at 10 µM (HIV [2]; [7]),inhibition at 10 µM (HIV [2]; [8]),Cytotoxicity [3],"Relative rate of enzymatic degradation ([4]; XIIa versus XIIb, snake venom phosphodiesterase)",Reduction in the area of the HPLC peak relatively to the control ([4]; after 1 hour),Reduction in the area of the HPLC peak relatively to the control ([4]; after 17 hours),Substrate change on enzymatic hydrolysis (in words) ([4]; after 1 hour),Substrate change on enzymatic hydrolysis (in words) ([4]; after 17 hours)
"Nc1ccn([C@H]2C[C@@H]3O[P@](O)(=S)OC[C@H]4O[C@@H](n5ccc(N)nc5=O)C[C@@H]4O[P@](O)(=S)OC[C@H]3O2)c(=O)n1 [Compound IIa, Cyclo-2'-deoxy-(RP)-P-thiocytidylyl-(3'→5')-2'-deoxy-(RP)-P-thiocytidylyl-(3'→5'), sodium salt]",0 pg RNA/ml,188 pg RNA/ml,465 pg RNA/ml,17%,24%,0.0 ng p24/ml,0.1 ng p24/ml,17.1 ng p24/ml,97%,20%,–,–,–,–,–,–
"Nc1ccn([C@H]2C[C@@H]3O[P@@](O)(=S)OC[C@H]4O[C@@H](n5ccc(N)nc5=O)C[C@@H]4O[P@](O)(=S)OC[C@H]3O2)c(=O)n1 [Compound IIb, Cyclo-2'-deoxy-(SP)-P-thiocytidylyl-(3'→5')-2'-deoxy-(RP)-P-thiocytidylyl-(3'→5'), sodium salt]",0 pg RNA/ml,0 pg RNA/ml,266 pg RNA/ml,100%,56%,0.0 ng p24/ml,0.0 ng p24/ml,3.7 ng p24/ml,100%,83%,non cytotoxic,–,–,–,–,–
"Nc1ccn([C@H]2C[C@H](O[P@](O)(=S)OC[C@H]3O[C@@H](n4ccc(N)nc4=O)C[C@@H]3O)[C@@H](CO)O2)c(=O)n1 [XIIa, 2'-deoxy-(RP)-P-thiocytidylyl-(3'→5')-2'-deoxycytidine sodium salt]",–,–,–,–,–,–,–,–,–,–,–,degraded much faster than the sample XIIb,50%,72%,–,–
"Nc1ccn([C@H]2C[C@H](O[P@@](O)(=S)OC[C@H]3O[C@@H](n4ccc(N)nc4=O)C[C@@H]3O)[C@@H](CO)O2)c(=O)n1 [XIIb, 2'-deoxy-(SP)-P-thiocytidylyl-(3'→5 '-2-deoxycytidinesodium salt]",–,–,–,–,–,–,–,–,–,–,–,–,–,–,almost unchanged,almost unchanged
